According to patent publication US11452717B2, “Small molecule activators of nicotinamide phosphoribosyltransferase (NAMPT) and uses thereof” (Sanford Burnham Prebys Medical Discovery Institute, priority 2017, dated 2022):

Target: NAMPT enzyme (Homo sapiens (Human), UniProt P43490)
Test: Enzyme Assay and NMN Detection (NAMPT reaction, fluorescence detection of NMN)
Format: biochemical
Details: Table B-1; NAMPT activation, NMN formation
Method: NAMPT reaction was performed in 50 mM HEPES, pH 7.5, containing 5 mM MgCl2, 0.1% Prionex, 0.005% Tween 20, and 1 mM TCEP at room temperature in Greiner 384-well black polypropylene plates. The concentration of substrates and enzymes in the final assay were as follows: ATP (120 uM), nicotinamide (5 uM), phosphoribosylpyrophosphate (6.25 uM), NAMPT enzyme (16 nM), pyrophosphatase (0.04 U/ml) in the final reaction volume 6 uL. Following 2 h incubation the reaction was stopped by addition 2.5 ul 20% acetophenone in dimethyl sulfoxide (DMSO) and 2.5 ul 2 MKOH. Plates were centrifuges and added with 10.5 ul 88% formic acid. The fluorescence (ex380/em460) was measured following another short incubation and 30 min incubation. The increased concentration of NMN was determined from a calibration curve obtained at the time of experiment.

Sequence of NAMPT enzyme (P43490 whole entry, species assumed): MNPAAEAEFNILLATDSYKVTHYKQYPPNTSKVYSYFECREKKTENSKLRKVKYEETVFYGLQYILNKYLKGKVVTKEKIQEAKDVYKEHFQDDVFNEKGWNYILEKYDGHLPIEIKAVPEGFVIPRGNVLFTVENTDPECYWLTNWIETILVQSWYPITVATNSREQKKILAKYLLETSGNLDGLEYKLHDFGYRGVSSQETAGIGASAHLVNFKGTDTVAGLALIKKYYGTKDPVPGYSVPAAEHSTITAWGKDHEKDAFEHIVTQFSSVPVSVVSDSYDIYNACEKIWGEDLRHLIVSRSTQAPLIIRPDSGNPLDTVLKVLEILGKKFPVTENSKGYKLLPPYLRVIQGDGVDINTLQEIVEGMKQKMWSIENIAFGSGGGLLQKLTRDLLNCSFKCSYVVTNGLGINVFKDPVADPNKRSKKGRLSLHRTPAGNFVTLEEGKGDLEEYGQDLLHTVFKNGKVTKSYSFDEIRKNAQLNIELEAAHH

EC50 [nM]	SMILES
100 to 2000	CCOC(=O)c1ccc(NC(=O)NCc2cn[nH]c2)cc1 [Ethyl 4-(3-((1H-pyrazol-4-yl)methyl)ureido)benzoate]
< 100	O=C(NCc1cn[nH]c1)Nc1ccc(S(=O)(=O)c2ccccc2Cl)cc1 [1-[4-(2-Chloro-benzenesulfonyl)-phenyl]-3-(1H-pyrazol-4-ylmethyl)-urea]
100 to 2000	O=C(NCc1cn[nH]c1)Nc1ccc(S(=O)(=O)N2CC3CCC(C2)O3)cc1 [1-[4-(8-Oxa-3-aza-bicyclo[3.2.1]octane-3-sulfonyl)-phenyl]-3-(1H-pyrazol-4-ylmethyl)-urea]
2000 to 5000	O=C(NCc1cn[nH]c1)Nc1ccc(S(=O)(=O)Nc2ccccn2)cc1 [4-[3-(1H-Pyrazol-4-ylmethyl)-ureido]-N-pyridin-2-yl-benzenesulfonamide]

Same assay, conditions: Table B-2; NAMPT activation, NMN formation

SMILES	EC50 [nM]
O=C(NCc1ccncc1)Nc1ccc(S(=O)(=O)NCCN2CCOCC2)cc1 [N-(2-Morpholin-4-yl-ethyl)-4-(3-pyridin-4-ylmethyl-ureido)-benzenesulfonamide]	100 to 2000
CN1CCN(CCNS(=O)(=O)c2ccc(NC(=O)NCc3ccncc3)cc2)CC1 [N-[2-(4-Methyl-piperazin-1-yl)-ethyl]-4-(3-pyridin-4-ylmethyl-ureido)-benzenesulfonamide]	100 to 2000
O=C(NCc1ccncc1)Nc1cccc(S(=O)(=O)NC2CCCC2)c1 [N-cyclopentyl-3-(3-(pyridin-4-ylmethyl)ureido)benzenesulfonamide]	> 20000

Now from value to compound:

EC50 [nM]	SMILES
100 to 2000	O=C(NCc1ccncc1)Nc1ccc(S(=O)(=O)NCc2cccc(C(F)(F)F)c2)cc1 [4-(3-Pyridin-4-ylmethyl-ureido)-N-(3-trifluoromethyl-benzyl)-benzenesulfonamide]
2000 to 5000	O=C(NCc1ccncc1)Nc1ccc(C(=O)Nc2cccc(OC(F)(F)F)c2)cc1 [4-(3-(pyridin-4-ylmethyl)ureido)-N-(3-(trifluoromethoxy)phenyl)benzamide]
< 100	CCN(Cc1ccccc1)S(=O)(=O)c1ccc(NC(=O)NCc2ccncc2)cc1 [N-Benzyl-N-ethyl-4-(3-pyridin-4-ylmethyl-ureido)-benzenesulfonamide]
100 to 2000	COC(=O)c1ccc(CNS(=O)(=O)c2ccc(NC(=O)NCc3ccncc3)cc2)cc1 [4-{[4-(3-Pyridin-4-ylmethyl-ureido)-benzenesulfonylamino]-methyl}-benzoic acid methyl ester]
< 100	CCCN(Cc1ccccc1)S(=O)(=O)c1ccc(NC(=O)NCc2ccncc2)cc1 [N-Benzyl-N-propyl-4-(3-pyridin-4-ylmethyl-ureido)-benzenesulfonamide]
2000 to 5000	Cc1cc(NC(=O)c2ccc(NC(=O)NCc3ccncc3)cc2)on1 [N-(3-methylisoxazol-5-yl)-4-(3-(pyridin-4-ylmethyl)ureido)benzamide]
5000 to 20000	O=C(NCc1ccncc1)Nc1ccc(C(=O)Nc2ccccn2)cc1 [N-(pyridin-2-yl)-4-(3-(pyridin-4-ylmethyl)ureido)benzamide]
100 to 2000	CC(C)(C)NS(=O)(=O)c1ccc(NC(=O)NCc2ccncc2)cc1 [N-(tert-butyl)-4-(3-(pyridin-4-ylmethyl)ureido)benzenesulfonamide]
100 to 2000	Cc1ccccc1CNS(=O)(=O)c1ccc(NC(=O)NCc2ccncc2)cc1 [N-(2-Methyl-benzyl)-4-(3-pyridin-4-ylmethyl-ureido)-benzenesulfonamide]
100 to 2000	CC(C)Oc1ccc(NC(=O)c2ccc(NC(=O)NCc3ccncc3)cc2)cc1 [N-(4-isopropoxyphenyl)-4-(3-(pyridin-4-ylmethyl)ureido)benzamide]

Same assay, conditions: Table B-3; NAMPT activation, NMN formation

EC50 [nM]	SMILES
> 20000	COc1ccc(NC(=O)NCc2ccccn2)cc1 [1-(4-Methoxyphenyl)-3-(pyridin-2-ylmethyl)urea]
> 20000	O=C(NCc1ccccn1)Nc1ccc(Cl)cc1 [1-(4-Chlorophenyl)-3-(pyridin-2-ylmethyl)urea]

Same assay, conditions: Table B-4; NAMPT activation, NMN formation

EC50 [nM]	SMILES
100 to 2000	Cc1ccccc1-c1csc(Nc2ccc(NC(=O)NCc3cn[nH]c3)cc2)n1 [1-(1H-Pyrazol-4-ylmethyl)-3-[4-(4-o-tolyl-thiazol-2-ylamino)-phenyl]-urea]
100 to 2000	O=C(NCc1cn[nH]c1)Nc1ccc(-c2n[nH]c3ccccc23)cc1 [1-[4-(1H-Indazol-3-yl)-phenyl]-3-(1H-pyrazol-4-ylmethyl)-urea]
100 to 2000	Cc1ccc(S(=O)(=O)c2ccc(NC(=O)NCc3cn[nH]c3)cc2)cn1 [1-[4-(6-Methyl-pyridine-3-sulfonyl)-phenyl]-3-(1H-pyrazol-4-ylmethyl)-urea]
2000 to 5000	Cc1cccc2c(-c3ccc(NC(=O)NCc4cn[nH]c4)cc3)nn(C)c12 [1-((1H-Pyrazol-4-yl)methyl)-3-(4-(1,7-dimethyl-1H-indazol-3-yl)phenyl)urea]
100 to 2000	O=C(NCc1cn[nH]c1)Nc1ccc(S(=O)(=O)NCc2cccc(F)c2)cc1 [N-(3-Fluoro-benzyl)-4-[3-(1H-pyrazol-4-ylmethyl)-ureido]-benzenesulfonamide]
< 100	O=C(NCc1cn[nH]c1)Nc1ccc(S(=O)(=O)c2ccccc2-c2ccccc2)cc1 [1-((1H-Pyrazol-4-yl)methyl)-3-(4-([1,1′-biphenyl]-2-ylsulfonyl)phenyl)urea]
2000 to 5000	Cn1nc(-c2ccc(NC(=O)NCc3cn[nH]c3)cc2)c2cnccc21 [1-[4-(1-Methyl-1H-pyrazolo[4,3-c]pyridin-3-yl)-phenyl]-3-(1H-pyrazol-4-ylmethyl)-urea]
< 100	O=C(NCc1cn[nH]c1)Nc1ccc(S(=O)(=O)c2ccc(F)cc2F)cc1 [1-[4-(2,4-Difluoro-benzenesulfonyl)-phenyl]-3-(1H-pyrazol-4-ylmethyl)-urea]
100 to 2000	O=C(NCc1cn[nH]c1)Nc1ccc(Nc2nc(-c3ccccc3)cs2)cc1 [1-((1H-Pyrazol-4-yl)methyl)-3-(4-((4-phenylthiazol-2-yl)amino)phenyl)urea]
100 to 2000	O=C(NCc1cn[nH]c1)Nc1ccc(S(=O)(=O)c2cccc(-c3ccccc3)c2)cc1 [1-((1H-Pyrazol-4-yl)methyl)-3-(4-([1,1′-biphenyl]-3-ylsulfonyl)phenyl)urea]
100 to 2000	O=C(NCc1cn[nH]c1)Nc1ccc(S(=O)(=O)c2ccccc2-c2ccncc2)cc1 [1-(1H-Pyrazol-4-ylmethyl)-3-[4-(2-pyridin-4-yl-benzenesulfonyl)-phenyl]-urea]

Same assay, conditions: Table B-5; NAMPT activation, NMN formation

SMILES	EC50 [nM]
O=C(NCc1cnco1)Nc1ccc(S(=O)(=O)c2ccccn2)cc1 [1-(Oxazol-5-ylmethyl)-3-(4-(pyridin-2-ylsulfonyl)phenyl)urea]	100 to 2000
Cn1nc(-c2ccc(NC(=O)NCc3cnco3)cc2)c2cc(F)ccc21 [1-[4-(5-Fluoro-1-methyl-1H-indazol-3-yl)-phenyl]-3-oxazol-5-ylmethyl-urea]	2000 to 5000
O=C(NCc1cnco1)Nc1ccc(S(=O)(=O)c2ccc(Cl)cc2)cc1 [1-(4-((4-Chlorophenyl)sulfonyl)phenyl)-3-(oxazol-5-ylmethyl)urea]	100 to 2000
Cc1ccc2c(c1)c(-c1ccc(NC(=O)NCc3cnco3)cc1)nn2C [1-(4-(1,5-Dimethyl-1H-indazol-3-yl)phenyl)-3-(oxazol-5-ylmethyl)urea]	5000 to 20000
O=C(NCc1cnco1)Nc1ccc(S(=O)(=O)c2ncccn2)cc1 [1-Oxazol-5-ylmethyl-3-[4-(pyrimidine-2-sulfonyl)-phenyl]-urea]	5000 to 20000
COc1ccccc1S(=O)(=O)c1ccc(NC(=O)NCc2cnco2)cc1 [1-(4-((2-Methoxyphenyl)sulfonyl)phenyl)-3-(oxazol-5-ylmethyl)urea]	100 to 2000
O=C(NCc1cnco1)Nc1ccc(S(=O)(=O)C2CCCCC2)cc1 [1-(4-cyclohexanesulfonyl-phenyl)-3-oxazol-5-ylmethyl-urea]	2000 to 5000

The remaining lines, values ahead:

EC50 [nM]	SMILES
< 100	O=C(NCc1cnco1)Nc1ccc(NS(=O)(=O)Cc2ccc(Cl)c(Cl)c2)cc1 [1-(3,4-Dichlorophenyl)-N-(4-(3-(oxazol-5-ylmethyl)ureido)phenyl)methanesulfonamide]
< 100	O=C(NCc1cnco1)Nc1ccc(NS(=O)(=O)Cc2ccc(Cl)cc2)cc1 [1-(4-Chlorophenyl)-N-(4-(3-(oxazol-5-ylmethyl)ureido)phenyl)methanesulfonamide]

Same assay, conditions: Table B-6; NAMPT activation, NMN formation

SMILES	EC50 [nM]
N#Cc1cc(NC(=O)NCc2ccncc2)ccc1S(=O)(=O)c1cc(F)cc(F)c1 [1-(3-Cyano-4-((3,5-difluorophenyl)sulfonyl)phenyl)-3-(pyridin-4-ylmethyl)urea]	100 to 2000
O=C(NCc1ccncc1)Nc1ccc(S(=O)(=O)C2CCCCC2)cc1 [1-(4-Cyclohexanesulfonyl-phenyl)-3-pyridin-4-ylmethyl-urea]	100 to 2000

Continued, values first:

EC50 [nM]	SMILES
100 to 2000	O=C(NCc1ccncc1)Nc1ccc(S(=O)(=O)c2ccccc2-c2cccc(Cl)c2)cc1 [1-[4-(3′-Chloro-biphenyl-2-sulfonyl)-phenyl]-3-pyridin-4-ylmethyl-urea]
100 to 2000	Cn1nc(-c2ccc(NC(=O)NCc3ccncc3)cc2)c2ccccc21 [1-[4-(1-Methyl-1H-indazol-3-yl)-phenyl]-3-pyridin-4-ylmethyl-urea]
100 to 2000	O=C(NCc1ccncc1)Nc1ccc(S(=O)(=O)c2ccccc2-c2cccnc2)cc1 [1-[4-(2-Pyridin-3-yl-benzenesulfonyl)-phenyl]-3-pyridin-4-ylmethyl-urea]
< 100	COc1cccc(CS(=O)(=O)Nc2ccc(NC(=O)NCc3ccncc3)cc2)c1 [C-(3-Methoxy-phenyl)-N-[4-(3-pyridin-4-ylmethyl-ureido)-phenyl]-methanesulfonamide]
< 100	O=C(NCc1ccncc1)Nc1ccc(NS(=O)(=O)Cc2ccc(C3CC3)cc2)cc1 [C-(4-Cyclopropyl-phenyl)-N-[4-(3-pyridin-4-ylmethyl-ureido)-phenyl]-methanesulfonamide]
